Reference: patent US20080287323A1, “Treatment and Reuse of Oilfield Produced Water” (priority 2007, published 2008)

Test system: bacteria and/or enzymes in the produced water
Assay: Fann 50 viscosity test of guar or CMHPG gels prepared from pretreated oilfield produced water
Details: similar borate-crosslinked guar gels versus "as is" produced water
Protocol: Example of produced water treated with zirconyl chloride: Produced water PW4 was treated with 0.36 mL/L of zirconyl chloride solution M14. The mixture was stirred and then let stand for 30 minutes or more. Gels comprising borate-crosslinked guar were prepared with 8.8 mL/L M1, 6.0 mL/L M10, and 2.5 mL/L M11, in both the untreated and the M14-treated PW4 produced water. The viscosities of the fluids were tested with a Fann 50 viscometer.
Example of produced water treated with zirconium tetrachloride (ZTC): Produced water PW5-1 was treated with 1 mL/L of an aqueous solution of ZTC (containing an equivalent of 7.0 wt % ZrO2), stirred and then let stand for 1 day. Gels comprising borate-crosslinked guar were prepared with 8.8 mL/L M1, 6.0 mL/L M10 and 2.5 mL/L M11, using the treated (ES5) and untreated water (PW5-1, as is), and the viscosity of the fluids was tested with a Fann 50 viscometer at 93° C.
Examples of produced water treated with other inorganic heavy metal ions: Gels of borate-crosslinked guar were prepared from 8.8 mL/L M1, 6.0 mL/L M10 and 2.5 mL/L M11, added to two samples of BaCl2-treated PW6-1 produced water—0.28 g/L BaCl2 in ES6 and 3.4 g/L BaCl2 in ES7, followed by individual stirring for 30 minutes. […]

[Cl][Cu][Cl] [CuCl2] was tested, and the “effect of produced water treatment on gel viscosity (in words)” value was “did not obviously improve the viscosity”.
